Blank lines part the entries; values can stand above or below the molecule they belong to.
Assays:
[1] = stated as known; cited from earlier work
CYP3A4 = CYP3A4 (Homo sapiens, UniProt P08684)
Procedure: Both the curcumin-FK506 and TZDM-SLF bifunctional compounds include a ligand to the pertidyl-prolyl isomerase FKBP. Therefore, FKBP12 was used in the assay as the PMP. A control was also performed with FK506 in the presence and absence of FKBP12.
The coding sequence of human FKBP12 was subcloned into a pGEX2t vector. Bacteria transformed with this vector produce a fusion protein between FKBP12 and glutathione S-transferase (GST). FKBP12 is purified by standard methods and the GST tag enzymatically removed. Pure FKBP was flash-frozen, and stored at −80° C. at 10-100 micromolar in HEPES or phosphate buffer pH 7.0.
The CYP3A4 compound and the green substrate VIVID® DBOMF (Invitrogen) were used in the assay with the recombinant human FKBP12 (rhFKBP12) and one of the bifunctional compounds. […] Increasing concentrations of the bifunctional compound, curcumin-FK506, were added to this system, either in the presence (open symbols) or absence (closed symbols) of rhFKBP12 at one micromolar.
However, it has never been tested in an in vitro screen. Therefore, rhFKBP12 and FK506 were added to the VIVID assay. The open symbols are FK506+FKBP and the filled symbols are FK506 alone.

COS-1 cells = assay: Fluorescence microscopy of cellular distribution in cultured COS-1 cells; format: cell-based; details: FIG. 3
Procedure: Cellular and tissue distribution of a bifunctional molecule consisting of a FKBP-binding group was also assessed. Such re-distribution is due to changes in the physicochemical characteristics of the new molecule and also is driven by specific, high-affinity interactions with FKBP. For example, the distribution of TZDM and TZDM-SLF were studied in cultured COS-1 cells (see FIG. 3). The intrinsic fluorescence of TZDM was used was a convenient handle for following drug distribution. […] Thus, sequestering FKBP-binding drugs both reduces accessibility to P450 enzymes and also alters the distribution of the bifunctional compounds.

[2] = molecular target: T1, cytochrome p450 3A4 (CYP3A4) (Homo sapiens, UniProt P08684); assay: Cytochrome P450 susceptibility assay using whole cells (FKBP-expressing CHO cells in the VIVID assay); format: in vitro ADME; details: FKBP-expressing Chinese hamster ovary cells (CHO) added, FIG. 4
T1 construct: purchased Invitrogen
T1 sequence (P08684 whole entry): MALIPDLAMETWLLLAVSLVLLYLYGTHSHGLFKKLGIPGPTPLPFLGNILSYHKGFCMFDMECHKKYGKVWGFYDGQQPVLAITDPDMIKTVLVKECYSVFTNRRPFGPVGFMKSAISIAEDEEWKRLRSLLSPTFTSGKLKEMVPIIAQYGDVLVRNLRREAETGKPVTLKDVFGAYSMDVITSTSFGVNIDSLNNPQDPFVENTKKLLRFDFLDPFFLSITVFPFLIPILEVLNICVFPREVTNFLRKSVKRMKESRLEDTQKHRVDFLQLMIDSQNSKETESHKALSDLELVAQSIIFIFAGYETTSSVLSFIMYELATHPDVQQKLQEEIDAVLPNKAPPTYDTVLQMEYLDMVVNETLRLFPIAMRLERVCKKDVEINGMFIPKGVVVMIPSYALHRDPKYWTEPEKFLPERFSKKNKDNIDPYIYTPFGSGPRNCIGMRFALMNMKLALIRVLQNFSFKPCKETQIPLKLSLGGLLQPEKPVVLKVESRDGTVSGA
Procedure: In addition to using rhFKBP12 or other recombinant proteins, whole cells were also tested using the cytochrome P450 assay platform. […] Unconjugated curcumin (triangle) was used as a negative control.

Sequence of CYP3A4 (P08684 whole entry): as above

Compound: C=CC[C@@H]1/C=C(\C)C[C@H](C)C[C@H](OC)[C@H]2O[C@@](O)(C(=O)C(=O)N3CCCC[C@H]3C(=O)O[C@H](/C(C)=C/[C@@H]3CC[C@@H](O)[C@H](OC)C3)[C@H](C)[C@@H](O)CC1=O)[C@H](C)C[C@@H]2OC [FK506]
protection from degradation in whole animals [1]: known to be protected from degradation in whole animals
protection from metabolism by CYP on binding the protein partner FKBP (CYP3A4; human): protected from P450 metabolism by the presence of the protein partner

cellular distribution by intrinsic fluorescence (COS-1 cells): resides in membranes
Compound: CN(C)c1ccc(-c2nc3ccc(I)cc3s2)cc1 [TZDM]

fluorescence of the reaction in the presence of rhFKBP12 compared to the reaction lacking rhFKBP12 (CYP3A4): higher
Compound: COc1cc(/C=C/C(=O)C(C(=O)/C=C/c2ccc(O)c(OC)c2)c2ccc(NC(=O)OCC[C@@H]3/C=C(\C)C[C@H](C)C[C@H](OC)[C@H]4O[C@@](O)(C(=O)C(=O)N5CCCC[C@H]5C(=O)OC(/C(C)=C/[C@@H]5CC[C@@H](O)[C@H](OC)C5)[C@H](C)C(O)CC3=O)[C@H](C)C[C@@H]4OC)cc2)ccc1O (stereo partly drawn) [curcumin-FK506]
protection from P450 metabolism by addition of FKBP-expressing cells [2]: protected by addition of the FKBP-expressing cells

protection from P450 metabolism by addition of FKBP-expressing cells [2]: less protected
Compound: COc1cc(/C=C/C(=O)CC(=O)/C=C/c2ccc(O)c(OC)c2)ccc1O [curcumin]
